# In publication PMC10515640, “Structure-Based Optimization of Covalent, Small-Molecule Stabilizers of the 14-3-3σ/ERα Protein–Protein Interaction from Nonselective Fragments” (Journal of the American Chemical Society, 2023):
# What was measured:
# 14-3-3σ/ERα [1] = molecular target: T1, 14-3-3σ/ERα (Homo sapiens, UniProt P03372+P31947); assay: Fluorescence anisotropy compound titration, FAM-labeled ERα peptide; type: binding; details: 10 nM ERα-FAM labeled peptide, 1 µM 14-3-3σ, overnight incubation (24 h); read-out: EC50 value ERα (FA compound titration)
# T1 construct: The 14-3-3 σ isoform (full-length for mass spectrometry and fluorescence anisotropy assays, ΔC for crystallography); made in house; host or cells: E. coli Rosetta 2(DE3)pLysS, pPROEX HTb vector
# Procedure, shortened: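 Fluorescence anisotropy compound titration measuring stabilization of the 14-3-3σ/ERα interaction: compounds were titrated in a 2-fold dilution series (starting at 500 or 1000 µM) into a mix of 10 nM fluorescein-labeled ERα peptide and 1 µM 14-3-3σ (about EC25 of the complex) in HEPES buffer with 1% DMSO, read after overnight incubation at room temperature; EC50 from 4PL fitting.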
# 14-3-3σ/ERα [2] = molecular target: T1, 14-3-3σ/ERα; assay: Mass spectrometry dose response, compound binding to 14-3-3σ in the presence of ERα phosphopeptide; details: 100 nM compound, 100 nM 14-3-3σ, ERα-peptide 2 µM
# Procedure, shortened: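 Covalent labeling of Cys38 on 14-3-3σ was tracked by LC-MS on a Waters Acquity UPLC/Xevo G2-XS Q-Tof, with samples desalted on a Protein BEH-C4 column. Full-length wild type 14-3-3σ (100 nM) plus ERα phosphopeptide was mixed with compound in 10 mM TRIS, pH 8.0, at 50 μl per well. Percent bound was measured at several time points.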
# 14-3-3σ/C-RAF [3] = molecular target: T2, 14-3-3σ/C-RAF (Homo sapiens, UniProt P31947); assay: Fluorescence anisotropy compound titration, FAM-labeled C-RAF peptide; type: binding; details: 10 nM C-RAF-FAM labeled peptide, 5 µM 14-3-3σ, overnight incubation; read-out: EC50 value C-RAF (FA compound titration)
# T2 construct: The 14-3-3 σ isoform (full-length for mass spectrometry and fluorescence anisotropy assays, ΔC for crystallography); made in house; host or cells: E. coli Rosetta 2(DE3)pLysS, pPROEX HTb vector
# T2 sequence (P31947 1-248): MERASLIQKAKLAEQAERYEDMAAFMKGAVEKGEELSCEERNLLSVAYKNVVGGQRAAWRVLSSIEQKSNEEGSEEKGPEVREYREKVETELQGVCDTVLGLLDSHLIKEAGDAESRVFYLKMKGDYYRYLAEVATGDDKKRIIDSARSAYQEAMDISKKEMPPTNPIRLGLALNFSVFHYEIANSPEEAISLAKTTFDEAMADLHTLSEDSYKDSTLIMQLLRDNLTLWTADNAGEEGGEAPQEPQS
# From the text: Two orthogonal assays were developed for screening. For the primary assay, mass spectrometry (MS) was used to monitor the formation of the covalent bond between the compound and the native cysteine (Cys38 on 14-3-3σ) (Figure 1D). The assay was first performed in the absence of peptide to determine binding to 14-3-3σ only (apo screening, D1) and then in the presence of both 14-3-3σ and the peptide as an indication of how much the peptide stabilized compound binding (D2). […] As a secondary assay, fluorescence anisotropy (FA) was used. In this case, compounds were titrated to mixtures of 14-3-3σ and FAM-labeled peptides. […] Thus, the two assays are highly complementary; the MS assay reports on compound binding and the FA assay reports on peptide binding. […]
# diluted in buffer (10 mM HEPES, pH 7.5, 150 mM NaCl, 0.1% Tween20, 1 mg/mL Bovine Serum Albumin (BSA; Sigma-Aldrich). Final DMSO in the assay was always 1%. Dilution series of 14-3-3 proteins or compounds were made in […]
# Compound titrations were made by titrating the compound in a 2-fold dilution series (starting at 500 or 1000 µM) to a mix of fluorescein-labeled peptide (10 nM) and 14-3-3σ (concentration at approximately the EC20 to EC30 value of the protein-peptide complex; 1 µM for ERα and 5 µM for C-RAF). Using the ~EC25 value makes the assay sensitive for measuring an increase in PPI formation. Fluorescence anisotropy measurements were performed directly and after overnight incubation at room temperature. […]
# Wells containing only FAM-peptide were used to set as G-factor at 35 mP. Data reported are at endpoint. EC50 and apparent Kd values were obtained from fitting the data with a four-parameter logistic model (4PL) in GraphPad Prism 7 for Windows. Data was obtained and averaged based on either three (compound titrations) or two (protein titrations) independent experiments.
# 14-3-3σ = molecular target: T3, 14-3-3σ (Homo sapiens, UniProt P31947); assay: Mass spectrometry dose response, compound binding to 14-3-3σ in the absence of peptide (apo); details: 100 nM compound, 100 nM 14-3-3σ
# T3 construct: The 14-3-3 σ isoform (full-length for mass spectrometry and fluorescence anisotropy assays, ΔC for crystallography); made in house; host or cells: E. coli Rosetta 2(DE3)pLysS, pPROEX HTb vector
# T3 sequence (P31947 1-248): T2 sequence (P31947 1-248)
# Procedure, shortened: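 Covalent binding of compounds to Cys38 of full-length wild type human 14-3-3σ (100 nM) was measured by LC-MS without peptide present. Compounds from 50 mM DMSO stocks were serially diluted 3-fold and 1000 nl transferred to plates in TRIS buffer (10 mM, pH 8.0), 50 μl per well. Samples were desalted on a BEH-C4 column and analysed on a Xevo G2-XS Q-Tof at several time points.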
# 14-3-3σ/C-RAF [4] = molecular target: T2, 14-3-3σ/C-RAF; assay: Mass spectrometry dose response, compound binding to 14-3-3σ in the presence of C-RAF phosphopeptide; details: 100 nM compound, 100 nM 14-3-3σ, C-RAF peptide 18 µM
# Procedure, shortened: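 Covalent binding of compounds to the native Cys38 of 14-3-3σ was monitored by LC-MS on a Waters Acquity UPLC/Xevo G2-XS Q-Tof, with samples desalted on a BEH-C4 column. Full-length wild type 14-3-3σ (100 nM) with C-RAF peptide in TRIS buffer (10 mM, pH 8.0) was incubated with compound dose series at room temperature.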
EC50 (14-3-3σ/ERα [1]) [µM],"Percentage (%) bound of compound to 14-3-3σ, ERα 1h (14-3-3σ/ERα [2]) [%]","Percentage (%) bound of compound to 14-3-3σ, ERα 8h (14-3-3σ/ERα [2]) [%]","Percentage (%) bound of compound to 14-3-3σ, ERα 16h (14-3-3σ/ERα [2]) [%]","Percentage (%) bound of compound to 14-3-3σ, ERα 24h (14-3-3σ/ERα [2]) [%]",EC50 (14-3-3σ/C-RAF [3]) [µM],"Percentage (%) bound of compound to 14-3-3σ, APO 1h (14-3-3σ) [%]","Percentage (%) bound of compound to 14-3-3σ, APO 8h (14-3-3σ) [%]","Percentage (%) bound of compound to 14-3-3σ, APO 16h (14-3-3σ) [%]","Percentage (%) bound of compound to 14-3-3σ, APO 24h (14-3-3σ) [%]","Percentage (%) bound of compound to 14-3-3σ, CRAF 1h (14-3-3σ/C-RAF [4]) [%]","Percentage (%) bound of compound to 14-3-3σ, CRAF 8h (14-3-3σ/C-RAF [4]) [%]","Percentage (%) bound of compound to 14-3-3σ, CRAF 24h (14-3-3σ/C-RAF [4]; 24h) [%]","Percentage (%) bound of compound to 14-3-3σ, CRAF 24h (14-3-3σ/C-RAF [4]; head prints 24h) [%]",Structure (SMILES)
23 ± 2,1.5,3.0,6.4,11.8,> 150,0,0,0.3,0.4,0,0,1.0,0,CC1(C)CC(Nc2ccc(Cl)cc2)(C(=O)N2CCC(CNC(=O)CCl)CC2)CC(C)(C)O1 [compound 179]
15 ± 2,5.6,15.7,34.4,63.7,32 ± 8,0,0.3,0.8,1.1,10.7,21.4,47.3,33.7,O=C(CCl)NCC1CCN(C(=O)C2(Oc3ccc(Cl)cc3)CCCC2)CC1 [compound 117]
22 ± 1,4.7,7.8,14.9,39.8,> 150,0,0,0.5,1.0,0,0.6,2.1,1.0,O=C(CCl)N1CCC2(CC1)CN(C(=O)C1(Nc3ccc(Cl)cc3)CCOCC1)C2 [compound 161]
18 ± 0.4,7.4,15.3,33.4,66.9,> 150,0,1.0,1.4,1.6,2.0,2.9,15.3,9.1,O=C(CCl)NCC1CCN(C(=O)C2(Oc3ccc(Cl)cc3)CCC(F)(F)CC2)CC1 [compound 124]

# The remaining lines, values behind:
Structure (SMILES),EC50 (14-3-3σ/ERα [1]) [µM],"Percentage (%) bound of compound to 14-3-3σ, ERα 1h (14-3-3σ/ERα [2]) [%]","Percentage (%) bound of compound to 14-3-3σ, ERα 8h (14-3-3σ/ERα [2]) [%]","Percentage (%) bound of compound to 14-3-3σ, ERα 16h (14-3-3σ/ERα [2]) [%]","Percentage (%) bound of compound to 14-3-3σ, ERα 24h (14-3-3σ/ERα [2]) [%]",EC50 (14-3-3σ/C-RAF [3]) [µM],"Percentage (%) bound of compound to 14-3-3σ, APO 1h (14-3-3σ) [%]","Percentage (%) bound of compound to 14-3-3σ, APO 8h (14-3-3σ) [%]","Percentage (%) bound of compound to 14-3-3σ, APO 16h (14-3-3σ) [%]","Percentage (%) bound of compound to 14-3-3σ, APO 24h (14-3-3σ) [%]","Percentage (%) bound of compound to 14-3-3σ, CRAF 1h (14-3-3σ/C-RAF [4]) [%]","Percentage (%) bound of compound to 14-3-3σ, CRAF 8h (14-3-3σ/C-RAF [4]) [%]","Percentage (%) bound of compound to 14-3-3σ, CRAF 24h (14-3-3σ/C-RAF [4]; 24h) [%]","Percentage (%) bound of compound to 14-3-3σ, CRAF 24h (14-3-3σ/C-RAF [4]; head prints 24h) [%]"
O=C(CCl)NCC1CCN(C(=O)C2(Oc3ccc(Cl)cc3)CC2)CC1 [compound 93],68 ± 2,0,0.9,1.1,1.7,> 150,0,0,0,0,0.1,0.1,2.3,0.1
CC(C)(Oc1ccc(Cl)cc1)C(=O)N1CCC(CCNC(=O)CCl)CC1 [compound 28],24 ± 16,0.3,1.5,4.2,10.9,40 ± 1,1.0,1.0,1.9,1.9,3.1,7.5,40.1,22.1
CC(C)(Oc1ccc(Cl)cc1)C(=O)N1CCC(CNC(=O)CCl)CC1 [compound 27],19 ± 1,1.4,6.4,14.6,30.6,16 ± 4,0.0,1.0,1.4,2.0,4.1,10.6,28.3,19.2
O=C(CCl)NCC1CCN(C(=O)C2(Nc3ccc(Cl)cc3)CC2)CC1 [compound 97],15 ± 1,1.0,2.5,5.8,21.3,101 ± 15,0.3,0.4,0.8,5.9,1.0,1.7,5.5,5.1
